Test: gradient 5% acetonitrile 3 min, to 50% in 2 min, to 85% in 15 min, held 3 min, 100 µL/min
Settings: column: Zorbax Extend-C18 2.1 x 50 mm; eluents: water / acetonitrile, 0.1% formic acid
How it was run: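 Retention times come from adduct peaks that were picked computationally and then checked by hand. The standards, pure and pooled in mixtures of ~100 molecules, were run on a Zorbax Extend-C18 column (2.1 × 50 mm, 1.8 μm) at 100 μL/min with water and acetonitrile, each with 0.1% formic acid. Detection was by quadrupole time-of-flight mass spectrometry in positive and negative ionization mode, with a dead volume of 40 μL and a dwell volume of 900 μL.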

SMILES	RP-LC retention time [s]
O=C(C1CCN(S(=O)(=O)c2ccc(-c3noc(C4CCCCC4)n3)cc2)CC1)N1CCCC1	836
CCn1nccc1-c1cccc(-c2noc(-c3ccc4cc[nH]c4c3)n2)c1	1140
COc1ccc(NC(=O)Nc2nccn(-c3ccc(C)c(C)c3)c2=O)cc1OC	913
CCNc1cc(N2CCC(CCC(=O)NCc3ccc(C)cc3)CC2)ncn1	676
Cc1nc2cc(-c3noc(CNC(=O)Cc4ccc(Cl)cc4)n3)ccc2n(C2CCCC2)c1=O	1020
Cc1ccc(CNC(=O)Cc2nnc(-c3cnccn3)o2)cc1C	720
O=C(NC1CC1)c1ccc(-n2cccn2)nc1	653
CCCCCNC(=O)c1sccc1S(=O)(=O)N(C)c1ccc(OCC)cc1	1190
COc1ccccc1NC(=O)N1CCCC1c1nc(-c2ccccc2OC)no1 (centres undefined)	894
Cc1nn(C(C)C(=O)N2CCC(N3CCCCC3)CC2)c(=O)c2nn(-c3ccccc3)c(C)c12 (centres undefined)	622
CCn1c(=O)c2ccnn2c2ccc(C(=O)NC3CCCC3)cc21	587
CCOC(=O)C1CC(C)=C(C)CC1C(=O)O (centres undefined)	854
Cc1cc(-c2nnc(-c3ccco3)o2)c(C)n1CC(=O)NCc1cc(F)cc(F)c1	852
O=C(NC1CC1)c1cc(=O)[nH]c2c(Cl)cccc12	626
CCc1cc(C(=O)NC2CC2)nc2cc(-c3ccsc3)nn12	1010
CC1CCC2(CC1)NC(=O)N(CC(=O)NCc1ccccc1)C2=O (centres undefined)	784
OC(CN1CCN(c2ncccn2)CC1)c1ccc(Br)cc1 (centres undefined)	607
Cc1ccccc1NS(=O)(=O)c1cc2n(c1)CCN(C(C)C)C2=O	758
Cc1cc(C)c(NC(=O)Cn2cccc2-c2nc(-c3ccc4c(c3)OCO4)no2)c(C)c1	1120
O=C(Nc1nc(-c2cc(Cl)sc2Cl)cs1)c1ccc([N+](=O)[O-])s1	1310
Nc1nc(Cl)nc2c1ncn2[C@@H]1O[C@H](CO)[C@H](O)C1O (some centres undefined)	611
CCNC(=O)C1CCN(C(=O)Nc2ccc(NC(=O)Nc3ccc(CC)cc3)cc2)CC1	733

SMILES	RP-LC retention time [s]
CCCCOc1ccc(NC(=O)c2cc(=O)c3cc(C)cc(C)c3o2)c2cccnc12	838
O=C(NCc1ccco1)C1CCN(c2ncccc2-c2nc(-c3cccc(Cl)c3)no2)CC1	1060
Cc1ccc(-n2c(N3CCC(C(=O)NC4CC4)CC3)nc3ccsc3c2=O)cc1	719
CC(C)(C)C(=O)N1CCC(C(=O)Nc2nc3ccc(S(C)(=O)=O)cc3s2)CC1	718
C=C(C)[C@@H]1CC=C(C(=O)O)CC1	875
CSc1cccc(NC(=O)C2CC(=O)N(c3ccc4c(c3)CCN4C(C)=O)C2)c1 (centres undefined)	730
Cn1nc(CNC(=O)c2cccs2)c2ccccc21	764
O=C(CCn1ccc2cc(S(=O)(=O)N3CCCCCC3)ccc21)N1CCN(c2ccccn2)CC1	710
COc1ccccc1OCC(=O)NCCc1sc(-c2ccc(Cl)cc2)nc1C	953
O=C(CSc1nccc(-c2ccc3c(c2)OCO3)n1)c1ccc2c(c1)OCO2	888
Cc1cccc(OCCc2noc(C3CN(S(=O)(=O)N(C)C)C3)n2)c1	950
COc1ccccc1CC(=O)Nc1ccc(-c2nc(Cn3cccn3)c(C)o2)cc1	869
CCN1c2ccccc2C(=O)NC12CCN(C(=O)Cc1ccc(OC)cc1)CC2	805
Cc1ccc(-c2nnc(-c3ccc(-n4ccnc4)nc3)o2)cc1F	716
Cc1ccc(Sc2c(-c3ccccc3)nc3ncccn23)cc1	1040
CCC(C)NS(=O)(=O)c1cc(-c2nnc(-c3ccc(OC)c(OC)c3)o2)ccc1C (centres undefined)	938
Cc1cccc(-c2nc(N3CCCC3)ncc2C(=O)O)c1	819
CCN(CC)CCN(CC(=O)N1CCNCC1)S(=O)(=O)c1ccc(C)c(C)c1	576
Cc1ccc(NC(=O)Nc2ccc3nncn3c2)cc1	700
O=C(c1cc(-c2ccncc2)n[nH]1)N1CCCC(C(=O)N2CCN(c3ccc(F)cc3)CC2)C1 (centres undefined)	615
CCOC(=O)c1c(C)[nH]c(CCC(=O)NCCOC)c1C	668
COc1ccc(CSc2nc3ccccc3[nH]2)cc1	625

— the METLIN SMRT retention time set (Domingo-Almenara et al. 2019)
